According to patent US20070161547A1, “Modulation of survivin expression” (priority 2003, published 2007):
Oligonucleotides are written 5' to 3', each unit as a sugar letter and its base; * is a phosphorothioate linkage, no mark a phosphodiester; rarer units and linkages stand in square brackets, end groups in braces. Plain capitals give the bases only. e = 2'-O-(2-methoxyethyl) (MOE); m = 2'-O-methyl; r = 2'-OH (RNA); {P} = phosphate

system: human survivin mRNA; test: IC50 of dsRNA for survivin mRNA, dose response by quantitative RT-PCR ("D"); type: cell-based; conditions: Table 16; cell line not given; read-out: IC50 (nM) mRNA, dsRNA to human survivin
Procedure: Representative parameters that can be studied include, for example, translation of survivin mRNAs or survivin protein synthesis; effect on surrogate markers; or any other parameter that is indicative of potential dsRNA therapeutic effectiveness that can be conveniently measured in vitro.
For western blot analysis, cells are plated in 10 cm tissue culture dishes (Falcon, #3003) at a density of 7.5×10^5 cells/dish. For RT-PCR analysis, 96-well plates (Corning Incorporated, #3596) are plated with 1×10^4 cells/well. Lipofectin (GIBCO/Invitrogen) transfection reagent is used at a concentration of 3 ul/ml OPTIMEM reduced serum medium (Gibco/Invitrogen)/100 nM siRNA duplex. Lipofectin reagent is incubated with OPTIMEM medium for 30 minutes prior to the addition of siRNA. The desired amount of siRNA is added and mixed. Further 1:1 dilutions are performed in OPTIMEM. Cells are washed twice with 1× phosphate buffered saline and then treated with the siRNA/Lipofectin mixture in OPTIMEM. After a 4 hr incubation period, OPTIMEM medium is replaced with complete growth medium. Cells are harvested after additional 16-20 hrs for Western blot or RT-PCR analysis.
Total RNA is isolated using RNeasy® 96 kit according to recommended protocol (Qiagen). Briefly, cells are washed with 200 ul PBS after removal of growth medium. Following washing, 100 μl buffer RLT is added, plate is shaken vigorously for about 20 seconds. To each well 100 μl 70% ethanol are added and mixed by pipetting up and down three times. Samples are then applied into the wells of the RNeasy 96 plate placed in the QIAvac top base of the QIAvac 96 manifold, which is attached to a vacuum source. Vacuum is applied for 30 seconds or until transfer is complete. To each well 80 μl of DNase I incubation mix (20 mM Tris-HCl, pH 8.4, 2 mM MgCl2, 50 mM KCl and 225 Units/ml DNase I from Invitrogen) is added and incubated at room temperature for 30 minutes. Buffer RW1 (1 ml/well) is added and the vacuum is applied for 30 seconds. Buffer RPE (1 ml/well) is added to each well and vacuum is applied for 30 seconds. Washing steps with buffer RW1 and RPE1 are repeated once more. The plate is then removed from the manifold and blotted dry on paper towels. The plate is placed back in the QIAvac manifold and the vacuum is applied for 10 minutes. To elute RNA 30 μl of RNase-free water is added directly onto the membrane of each well, incubated for 1 minutes and vacuum is applied for 30 seconds. In order to maximize the recovery of total RNA the elution step is repeated with additional 30 μl/well RNase-free water.
Quantitation of survivin and GAPDH mRNA levels is determined by real-time quantitative RT-PCR using the ABI PRISM® 7900 Sequence Detection System (Applied Biosystems). RT-PCR reactions are carried out by adding 15 ul of TaqMan One Step PCR Master Mix (Applied Biosystems, #4309169) reagents (containing 100 nM each of forward primer and reverse primer, and 200 nM probe) to 96-well plates with 10 μl total RNA. For human survivin, the forward PCR primer is: 5′[…]3′ (SEQ ID NO: 186), and the reverse primer is: 5′[…]3′ (SEQ ID NO: 187). The survivin TaqMan® probe used is 5′(FAM)[…]3′ (SEQ ID NO: 188) (Biosearch Technologies, Inc.). This primer-probe set, designed to SEQ ID No 14 was used for all experiments in Examples 15 to the end. For human GAPDH, TaqMan GAPDH Control Reagent Kit is used (Applied Biosystems, #402869). The percentage inhibition for each samples are calculated by comparing the survivin/GAPDH mRNA ratio for the sample to survivin/GAPDH mRNA ratio for the untreated control. The IC50 is derived from the non-linear regression analysis of the percentage inhibition data using GraphPad Prism software (GraphPad Software).
The constructs tested comprise the antisense strand in the 5′-3′ orientation, and the sense strand in the 5′ to 3′ orientation, In Table 15, “D” is dose response (mRNA levels) and “W” is Western blot. […]

Substance | IC50
ISIS 353539_343868: dsRNA duplex: antisense 353539, sense 343868 (antisense UUUGAAAAUGUUGAUCUCC; sense GGAGAUCAACAUUUUCAAA; chemical modifications, chemistry not fully specified) | 0.13 nM
ISIS 352507_346287: dsRNA duplex: antisense 352507, sense 346287 (antisense mUrUmUrGmArAmArAmUrGmUrUmGrAmUrCmUrCmC; sense rG*rG*rA*rG*rA*rU*rC*rA*rA*rC*rA*rU*rU*rU*rU*rC*rA*rA*rA) | 0.8 nM
ISIS 346284_346287: blunt-ended siRNA 19 PO-PS/PS: antisense 346284, sense 346287 (antisense rUrU*rUrG*rArA*rArA*rUrG*rUrU*rGrA*rUrC*rUrC*rC; sense rG*rG*rA*rG*rA*rU*rC*rA*rA*rC*rA*rU*rU*rU*rU*rC*rA*rA*rA) | 3.24 nM
ISIS 352506_352514: blunt-ended siRNA duplex: antisense 352506, sense 352514 (antisense mUrUrUrGrAmAmArArUmGrUrUrGrArUrCmUmCmC; sense GGAGAUCAACAUUUUCAAA; sense: sugars from the 5' end rererererererererer, all phosphodiester, methylation of C and T or U not given here) | 0.12 nM
ISIS 352507_352511: blunt-ended siRNA duplex: antisense 352507, sense 352511 (antisense mUrUmUrGmArAmArAmUrGmUrUmGrAmUrCmUrCmC; sense GGAGAUCAACAUUUUCAAA; sense: all phosphodiester, sugars by position and methylation of C not given here; further chemistry not fully specified) | 0.24 nM
ISIS 352507_352512: blunt-ended siRNA duplex: antisense 352507, sense 352512 (antisense mUrUmUrGmArAmArAmUrGmUrUmGrAmUrCmUrCmC; sense mGmGmAmGmAmUmCmAmAmCmAmUmUmUmUmCmAmAmA) | 0.04 nM
ISIS 352507_352514: blunt-ended siRNA duplex: antisense 352507, sense 352514 (antisense mUrUmUrGmArAmArAmUrGmUrUmGrAmUrCmUrCmC; sense GGAGAUCAACAUUUUCAAA; sense: sugars from the 5' end rererererererererer, all phosphodiester, methylation of C and T or U not given here) | 0.21 nM
ISIS 353540_343868: dsRNA duplex: antisense 353540, sense 343868 (antisense UUUGAAAAUGUUGAUCUCC; sense GGAGAUCAACAUUUUCAAA; chemical modifications, chemistry not fully specified) | 0.11 nM
ISIS 353538_343868: dsRNA duplex: antisense 353538 (4'-thio), sense 343868 (unmodified) (antisense UUUGAAAAUGUUGAUCUCC; sense GGAGAUCAACAUUUUCAAA; antisense: all phosphodiester, sugars by position and methylation of C not given here; sense: RNA, phosphodiester; antisense has 4'-thioribose at some positions, positions stated inconsistently, further chemistry not fully specified) | 0.16 nM
ISIS 355710_343868: dsRNA duplex: antisense 355710, sense 343868 (antisense UUUGAAAAUGUUGAUCUCC; sense GGAGAUCAACAUUUUCAAA; chemical modifications, chemistry not fully specified) | 0.1 nM

system: human survivin mRNA; test: Inhibition of human survivin mRNA by single-stranded asRNA in HUVEC, real-time quantitative PCR; type: cell-based; design: concentration or dose not given beside the values; conditions: Table 7
Procedure: HUVEC were obtained from ATCC and routinely cultured in EBM (Clonetics Corp, Walkersille, Md.) supplemented with SingleQuots supplements. Cells were routinely passaged by trypsinizaiton and dilution when they reached 90% confluence were maintained for up to 15 passages. For cells grown in 96-well plates (10,000 cells/well), wells were washed once with 200 μL OPTI-MEM-1™ reduced-serum medium (Gibco BRL) and then treated with 130 μL of OPTI-MEM-1™ containing 12 μg/mL LIPOFECTIN™ (Gibco BRL) and the desired double-stranded compounds at a final concentration of 25 nM. After 5 hours of treatment, the medium was replaced with fresh medium. Cells were harvested 16 hours after dsRNA treatment, at which time RNA was isolated and target reduction measured by RT-PCR.
A series of single-stranded olgometric compounds (asRNA) was evaluated for their ability to inhibit human survivin in human umbilical vein endothelial cells (HUVEC). Culture methods used for HUVEC are found, for example, at www.atcc.org.
Data were obtained by real-time quantitative PCR as described in other examples herein.

Substance | % INHIB, inhibition of human survivin mRNA levels by asRNA oligomeric compounds
347449 (antisense {P}-rG*rG*rC*rG*rA*rA*rU*rC*rA*rA*rA*rU*rC*rC*rA*rU*rC*rA*rU*rC) [compound 347449] | 51%
347448 (antisense {P}-rU*rC*rC*rA*rU*rC*rA*rU*rC*rU*rU*rA*rC*rG*rC*rC*rA*rG*rA*rC) [compound 347448] | 58%
347427 (antisense {P}-rA*rG*rC*rA*rC*rA*rG*rU*rU*rG*rA*rA*rA*rC*rA*rU*rC*rU*rA*rA) [compound 347427] | 54%
347438 (antisense {P}-rA*rG*rU*rU*rU*rG*rU*rG*rC*rU*rA*rU*rU*rC*rU*rG*rU*rG*rA*rA) [compound 347438] | 64%
347447 (antisense {P}-rG*rA*rA*rC*rG*rU*rG*rA*rC*rA*rG*rA*rU*rG*rU*rG*rA*rA*rG*rG) [compound 347447] | 47%
347433 (antisense {P}-rA*rG*rU*rC*rC*rA*rC*rA*rC*rU*rC*rA*rG*rG*rA*rC*rU*rG*rU*rG) [compound 347433] | 60%
347430 (antisense {P}-rG*rC*rA*rA*rA*rA*rG*rG*rG*rA*rC*rA*rC*rU*rG*rC*rC*rU*rU*rC) [compound 347430] | 66%
347445 (antisense {P}-rA*rC*rA*rG*rC*rA*rU*rC*rG*rA*rG*rC*rC*rA*rA*rG*rU*rC*rA*rU) [compound 347445] | 53%
347440 (antisense {P}-rU*rC*rC*rA*rC*rC*rU*rG*rA*rA*rG*rU*rU*rC*rA*rC*rC*rC*rC*rG) [compound 347440] | 57%
347451 (antisense {P}-rG*rC*rC*rG*rA*rG*rA*rU*rG*rA*rC*rC*rU*rC*rC*rA*rG*rA*rG*rG) [compound 347451] | 59%
347432 (antisense {P}-rC*rA*rA*rC*rA*rU*rG*rA*rG*rG*rU*rC*rC*rA*rG*rA*rC*rA*rC*rA) [compound 347432] | 66%
